Our source for the CC50 and EC50 values is US9856247B2, “4-methyl-dihydropyrimidines for the treatment and prophylaxis of Hepatitis B virus infection” (Hoffmann-La Roche Inc., priority 2012, dated 2018).

Molecules are shown by their SMILES. Like-named read-outs stand apart in the source and are kept apart here.

The nature of one data set: in vitro. The note with it: human. Here is the method: The transfected cells were selected with G418 (also known as Genticin, purchased from Invitrogen). […] These cells were maintained in Dulbecco's modified Eagle's medium (DMEM)-F12 medium (Invitrogen) supplemented with 10% fetal bovine serum, 100 U/ml penicillin, and 100 μg/ml streptomycin, 0.5 mg/ml of G418 and 1 μg/ml tetracycline.
To determine if the anti-HBV effect of compound is due to cytotoxicity, HepDE 19 cells (5×10^3 cells/well) were seeded into 96-well plates and compounds were treated as described above. […] Four hours after incubation at 37° C., the absorbance at wavelengths of 450 nm and 630 nm (OD450 and OD630) was recorded by a plate reader.

The test system of the next data set is HBV DNA. Briefly: Anti-HBV activity in HepDE19 cells (HBV DNA dot-blot). Format: cell-based, Hepatitis B virus (HBV). The text has this: Cells and culture conditions: HepDE19 (Haitao Guo et al, Journal of Virology, 81, November 2007, 12472-12484; Richeng Mao et al, Journal of Virology, 85, January 2011, 1048-1057) cells were derived from HepG2 (ATCC, American Type Culture Collection) cells through transfection with pTet-off plasmid (Clontech) that expresses the Tet-responsive transcriptional activator and pTREHBVDE plasmid in which HBV pgRNA expression is controlled by a CMV early promoter with a tetracycline-responsive element. The transfected cells were selected with G418 (also known as Genticin, purchased from Invitrogen). […] These cells were maintained in Dulbecco's modified Eagle's medium (DMEM)-F12 medium (Invitrogen) supplemented with 10% fetal bovine serum, 100 U/ml penicillin, and 100 μg/ml streptomycin, 0.5 mg/ml of G418 and 1 μg/ml tetracycline.
Anti-HBV activity and cytotoxicity: HepDE19 cells were seeded into 96-well plates (3×10^4 cells/well) with tetracycline-free medium and incubated overnight at 37° C. The test or control compounds were serially half-log diluted with medium and added into the plates (the final concentration of DMSO kept at 0.5% in each well). Five days after compound treatment, cells were washed with PBS and lysed with 50 mM Tris-1 mM EDTA-0.2% CA-630 (pH 8.0) at 37° C. for 20 min. After centrifugation to remove nuclei and other debris, the supernatant was transferred into a new plate and incubated with 2M NaOH/20×SSC (3M NaCl, 0.3M Sodium citrate, pH7.0) at rt for 30 min. Then the samples were transferred to nylon membrane and neutralized with 1M Tris (pH7.4)/2M NaCl. The presence of HBV DNA was detected by dot-blot with DIG-labeled HBV specific DNA probe and quantified by dot density. The compound concentrations that inhibited HBV DNA by 50% (EC50) were determined (See Table 1).

The mark [1] stands for this setting: Hepatitis B virus, 120 h, HepDE19 cells, five days after compound treatment, concentration that inhibited HBV DNA by 50%, read-out: HepDe19 EC50.
[2] abbreviates: Hepatitis B virus, HepDE19, 120 h, read-out: HepDe19 EC50.

For orientation: EC50 means the concentration at which the effect is half-maximal. In the data set “in vitro”, `COC(=O)C1=C(CN2CCOC[C@H]2C(=O)OC)NC(c2nccs2)=NC1(C)c1ccc(F)c(F)c1` (stereo in doubt) [Example 15, 4-[(S)-6-(3,4-Difluoro-phenyl)-5-methoxycarbonyl-6-methyl-2-thiazol-2-yl-3,6-dihydro-pyrimidin-4-ylmethyl]-morpholine-3-carboxylic acid methyl ester] displayed a CC50 at 5 days of over 100 µM. In the data set with HBV DNA (setting [1]), the EC50 came to 0.56 µM. The corresponding values for `COC(=O)C1=C(CN2CC(F)(F)C[C@H]2C(=O)OC)NC(c2ccc(F)cn2)=NC1(C)c1ccc(F)cc1` (stereo in doubt) [Example 17, 6-(4,4-Difluoro-2-methoxycarbonyl-pyrrolidin-1-ylmethyl)-4-(4-fluoro-phenyl)-2-(5-fluoro-pyridin-2-yl)-4-methyl-1,4-dihydro-pyrimidine-5-carboxylic acid methyl ester] are 90 µM and 0.59 µM.

On to `COC(=O)C1=C(COC(C)(C)C(=O)OC)NC(c2nccs2)=NC1(C)c1ccc(F)cc1` (stereo not shown) [Example 1, 4-(4-Fluoro-phenyl)-6-(1-methoxycarbonyl-1-methyl-ethoxymethyl)-4-methyl-2-thiazol-2-yl-1,4-dihydro-pyrimidine-5-carboxylic acid methyl ester], for which, in “in vitro”, the CC50 at 5 days was over 100 µM. In the data set with HBV DNA (setting [1]), the EC50 is 26.3 µM. On the same counts, the results for `COC(=O)C1=C(CN2CCOC[C@H]2C(=O)OC)NC(c2nccs2)=NC1(C)c1ccc(F)cc1` (stereo partly drawn) [Example 5, 4-[6-(4-Fluoro-phenyl)-5-methoxycarbonyl-6-methyl-2-thiazol-2-yl-3,6-dihydro-pyrimidin-4-ylmethyl]-morpholine-(S)-3-carboxylic acid methyl ester] are over 100 µM and 0.7 µM. On the same counts, the results for `COC(=O)C1=C(CN2CCOC[C@@H]2C(=O)O)NC(c2ccc(F)cn2)=NC1(C)c1ccc(F)cc1` (stereo partly drawn) [Example 9, 4-[6-(4-Fluoro-phenyl)-2-(5-fluoro-pyridin-2-yl)-5-methoxycarbonyl-6-methyl-3,6-dihydro-pyrimidin-4-ylmethyl]-morpholine-(R)-3-carboxylic acid] are over 100 µM and 4.18 µM.

`COC(=O)C1=C(CN2CCOC[C@H]2C(=O)O)NC(c2ccc(F)cn2)=NC1(C)c1ccc(F)cc1` (stereo partly drawn) [Example 10, 4-[6-(4-Fluoro-phenyl)-2-(5-fluoro-pyridin-2-yl)-5-methoxycarbonyl-6-methyl-3,6-dihydro-pyrimidin-4-ylmethyl]-morpholine-(S)-3-carboxylic acid]: the CC50 at 5 days in “in vitro” is over 100 µM. The EC50 in the data set on HBV DNA (setting [1]) came to 7.04 µM. As to `COC(=O)C1=C(CN2CC(F)(F)C[C@H]2C(=O)O)NC(c2nccs2)=NC1(C)c1ccc(F)cc1` (stereo partly drawn) [Example 11, 6-(2-(S)-Carboxy-4,4-difluoro-pyrrolidin-1-ylmethyl)-4-(4-fluoro-phenyl)-4-methyl-2-thiazol-2-yl-1,4-dihydro-pyrimidine-5-carboxylic acid methyl ester], the EC50 in the data set on HBV DNA (setting [2]) was determined as 0.46 µM. On the same count and under the same terms, next, `COC(=O)C1=C(CN2CC(F)(F)C[C@@H]2C(=O)O)NC(c2nccs2)=NC1(C)c1ccc(F)cc1` (stereo partly drawn) [Example 12, 6-(2-(R)-Carboxy-4,4-difluoro-pyrrolidin-1-ylmethyl)-4-(4-fluoro-phenyl)-4-methyl-2-thiazol-2-yl-1,4-dihydro-pyrimidine-5-carboxylic acid methyl ester]: 6.59 µM; `COC(=O)C1=C(CN2CC(F)(F)C[C@H]2C(=O)O)NC(c2nccs2)=N[C@@]1(C)c1ccc(F)cc1` [Example 13, (S)-6-((S)-2-Carboxy-4,4-difluoro-pyrrolidin-1-ylmethyl)-4-(4-fluoro-phenyl)-4-methyl-2-thiazol-2-yl-1,4-dihydro-pyrimidine-5-carboxylic acid methyl ester]: 0.15 µM. On to `COC(=O)C1=C(CN2CC(F)(F)C[C@H]2C(=O)O)NC(c2nccs2)=N[C@@]1(C)c1ccc(F)c(F)c1` [Example 14, (S)-6-((S)-2-Carboxy-4,4-difluoro-pyrrolidin-1-ylmethyl)-4-(3,4-difluoro-phenyl)-4-methyl-2-thiazol-2-yl-1,4-dihydro-pyrimidine-5-carboxylic acid methyl ester], for which the CC50 at 5 days in “in vitro” is over 100 µM. In addition, the EC50 with HBV DNA (setting [1]) is 0.2 µM. For `COC(=O)C1=C(CN2CCOC[C@H]2C(=O)O)NC(c2nccs2)=NC1(C)c1ccc(F)c(F)c1` (stereo partly shown) [Example 16, 4-[6-(3,4-Difluoro-phenyl)-5-methoxycarbonyl-6-methyl-2-thiazol-2-yl-3,6-dihydro-pyrimidin-4-ylmethyl]-morpholine-3-carboxylic acid], the CC50 at 5 days in “in vitro” is over 100 µM. For the same compound, the 50% effective concentration (EC50) in the data set with HBV DNA (setting [1]) was 0.25 µM.

On to `COC(=O)C1=C(CN2CC(F)(F)C[C@H]2C(=O)O)NC(c2ccc(F)cn2)=N[C@@]1(C)c1ccc(F)cc1` [Example 18, (S)-6-((S)-2-Carboxy-4,4-difluoro-pyrrolidin-1-ylmethyl)-4-(4-fluoro-phenyl)-2-(5-fluoro-pyridin-2-yl)-4-methyl-1,4-dihydro-pyrimidine-5-carboxylic acid methyl ester], for which, in “in vitro”, the CC50 at 5 days came to 25 µM. Also, the EC50 with HBV DNA (setting [1]) worked out at 0.57 µM. The compound `COC(=O)C1=C(CN2CC(F)(F)C[C@H]2C(=O)O)NC(c2ncc(C)s2)=NC1(C)c1ccc(F)cc1` (stereo partly drawn) [Example 19, 6-((S)-2-Carboxy-4,4-difluoro-pyrrolidin-1-ylmethyl)-4-(4-fluoro-phenyl)-4-methyl-2-(5-methyl-thiazol-2-yl)-1,4-dihydro-pyrimidine-5-carboxylic acid methyl ester] came in with a CC50 at 5 days in the data set “in vitro” of over 100 µM. In addition, the EC50 in the data set on HBV DNA (setting [1]) is 16.7 µM.

In the case of `COC(=O)C1=C(CN2CC(F)(F)C[C@@]2(C)C(=O)O)NC(c2nccs2)=N[C@@]1(C)c1ccc(F)cc1` [Example 20, (S)-6-((S)-2-Carboxy-4,4-difluoro-2-methyl-pyrrolidin-1-ylmethyl)-4-(4-fluoro-phenyl)-4-methyl-2-thiazol-2-yl-1,4-dihydro-pyrimidine-5-carboxylic acid methyl ester], the CC50 at 5 days in the data set “in vitro” was over 100 µM. In addition, the EC50 in the data set on HBV DNA (setting [1]) was determined as 2.8 µM. The corresponding values for `C[C@@]1(c2ccc(F)cc2)N=C(c2nccs2)NC(CN2CC(F)(F)C[C@H]2C(=O)O)=C1C#N` [Example 21, (S)-1-[(S)-5-Cyano-6-(4-fluoro-phenyl)-6-methyl-2-thiazol-2-yl-3,6-dihydro-pyrimidin-4-ylmethyl]-4,4-difluoro-pyrrolidine-2-carboxylic acid] are over 100 µM and 21 µM. The corresponding values for `CC1(c2ccc(F)c(F)c2)N=C(c2nccs2)NC(CN2CCOC[C@H]2C(=O)O)=C1C#N` (stereo partly drawn) [Example 22, (S)-4-[5-Cyano-6-(3,4-difluoro-phenyl)-6-methyl-2-thiazol-2-yl-3,6-dihydro-pyrimidin-4-ylmethyl]-morpholine-3-carboxylic acid] are over 100 µM and 20.4 µM. The corresponding values for `C[C@@]1(c2ccc(F)c(F)c2)N=C(c2nccs2)NC(CN2CC(F)(F)C[C@H]2C(=O)O)=C1C#N` [Example 23, (S)-1-[(S)-5-Cyano-6-(3,4-difluoro-phenyl)-6-methyl-2-thiazol-2-yl-3,6-dihydro-pyrimidin-4-ylmethyl]-4,4-difluoro-pyrrolidine-2-carboxylic acid] are over 100 µM and 7 µM. For `COC(=O)C1=C(CN2CC(F)(F)C[C@H]2C(=O)O)NC(c2ccc(F)s2)=N[C@@]1(C)c1ccc(F)cc1` [Example 38, (S)-6-((S)-2-carboxy-4,4-difluoro-pyrrolidin-1-ylmethyl)-4-(4-fluoro-phenyl)-2-(5-fluoro-thiophen-2-yl)-4-methyl-1,4-dihydro-pyrimidine-5-carboxylic acid methyl ester], the EC50 in the data set with HBV DNA (setting [1]) turned out to be 2.03 µM.

Turning to `COC(=O)C1=C(CN2CC(F)(F)C[C@H]2C(=O)OC)NC(c2nccs2)=N[C@@]1(C)c1ccc(F)cc1` [Example 45, (S)-6-((S)-4,4-difluoro-2-methoxycarbonyl-pyrrolidin-1-ylmethyl)-4-(4-fluoro-phenyl)-4-methyl-2-thiazol-2-yl-1,4-dihydro-pyrimidine-5-carboxylic acid methyl ester], in the data set “in vitro”, the CC50 at 5 days is at least 100 µM. Turning to `COC(=O)c1c(C)nc(-c2ncc(F)cc2F)nc1-c1ccc(F)cc1Cl` [XLVI], the EC50 in the data set with HBV DNA (read-out: EC50 value, HBV DNA reduction in HepDE19 cell based assays) was over 100 µM.
